Where two headings read alike, the source gives them in different places.
Tests used:
[1] = test system: HCV genotype 1a (H77 strain) replicon in HUH-7 cells; assay: HCV replicon luciferase reporter assay, genotype 1a; assay type: cell-based; conditions: Hepatitis C virus, Huh-7, 72 h, 3 days incubation, read-out: LE_1a (EC50, range)
Outline: (§1)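 Replicon inhibition for both genotypes was measured as Renilla luciferase signal (EnduRen, 7.5 μM final, 2 h) after 3-day, 37° C exposure of replicon-bearing HUH-7 cells in 4% FCS DMEM, 0.5% DMSO. The 1b construct carries S1179I; the 1a H77 construct carries P1496L and S2204I. Twenty-point, 3-fold dilutions were fitted four-parametrically for EC50, and CC50 was taken from multiplexed Cell Titer-Blue.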

[2] = test system: HCV genotype 1b (Con1) replicon in HUH-7 cells; assay: HCV replicon luciferase reporter assay, genotype 1b; assay type: cell-based; conditions: Hepatitis C virus, Huh-7, 72 h, 3 days incubation, read-out: LE_1b (EC50, range)
Outline: as §1

[3] = HCV genotype 1a replicon luciferase
[4] = HCV genotype 1b replicon luciferase
[5] = HCV genotype 1a replicon luciferase assay, range class
[6] = HCV genotype 1b replicon luciferase assay, range class

Compound	EC50 [1, 3] [nM]	EC50 [2, 4] [nM]	EC50 [1, 5] [nM]	EC50 [2, 6] [nM]
CC(C)Oc1ccc2c(O[C@@H]3C[C@H]4C(=O)N[C@]5(C(=O)NS(=O)(=O)C6(C)CC6)C[C@H]5/C=C\CC[C@H](C)C[C@@H](C)[C@H](NC(=O)O[C@H](C)C(F)(F)F)C(=O)N4C3)nccc2c1 [Compound 5160, (R)-1,1,1-trifluoropropan-2-yl ((2R,6S,7R,9S,13aS,14aR,16aS,Z)-2-((6-isopropoxyisoquinolin-1-yl)oxy)-7,9-dimethyl-14a-(((1-methylcyclopropyl)sulfonyl)carbamoyl)-5,16-dioxo-1,2,3,5,6,7,8,9,10,11,13a,14,14a,15,16,16a-hexadecahydrocyclopropa[e]pyrrolo[1,2-a][1,4]diazacyclopentadecin-6-yl)carbamate]	4.82 to 103	< 5.46	–	–
COc1cnc(O[C@@H]2C[C@H]3C(=O)N[C@]4(C(=O)NS(=O)(=O)C5(CF)CC5)C[C@H]4CCCC[C@@H](C)C[C@@H](C)[C@H](NC(=O)OC(C)(C)C(C)(F)F)C(=O)N3C2)c2ccccc12 [Compound 5119, 3,3-difluoro-2-methylbutan-2-yl ((2R,6S,7R,9R,13 aR,14aR,16aS)-14a-(((1-(fluoromethyl)cyclopropyl)sulfonyl)carbamoyl)-2-((4-methoxyisoquinolin-1-yl)oxy)-7,9-dimethyl-5,16-dioxooctadecahydrocyclopropa[e]pyrrolo[1,2-a][1,4]diazacyclopentadecin-6-yl)carbamate]	< 5.46	< 5.46	–	–
CC[C@@H]1C[C@@H](C)CC/C=C\[C@@H]2C[C@@]2(C(=O)NS(=O)(=O)C2CC2)NC(=O)[C@@H]2C[C@@H](Oc3nccc4c5c(ccc34)N(C)CCO5)CN2C(=O)[C@H]1NC(=O)NC(C)(C)C [Compound 5315, (2R,6S,7R,9S,13aS,14aR,16aS,Z)-6-(3-(tert-butyl)ureido)-N-(cyclopropylsulfonyl)-7-ethyl-9-methyl-2-((4-methyl-3,4-dihydro-2H-[1,4]oxazino[2,3-f]isoquinolin-7-yl)oxy)-5,16-dioxo-1,2,3,5,6,7,8,9,10,11,13a,14,14a,15,16,16a-hexadecahydrocyclopropa[e]pyrrolo[1,2-a][1,4]diazacyclopentadecine-14a-carboxamide]	4.82 to 103	4.82 to 103	–	–
CC(C)Oc1cc2c(Cl)cccc2c(O[C@@H]2C[C@H]3C(=O)N[C@]4(C(=O)NS(=O)(=O)C5CC5)C[C@H]4/C=C\CC[C@@H](C)C[C@@H](C)[C@H](NC(=O)OC(C)(C)C(F)(F)F)C(=O)N3C2)n1 [Compound 1094, 1,1,1-trifluoro-2-methylpropan-2-yl((2R,6S,7R,9R,13aS,14aR,16aS,Z)-2-((5-chloro-3-isopropoxyisoquinolin-1-yl)oxy)-14a-((cyclopropylsulfonyl)carbamoyl)-7,9-dimethyl-5,16-dioxo-1,2,3,5,6,7,8,9,10,11,13a,14,14a,15,16,16a-hexadecahydrocyclopropa[e]pyrrolo[1,2-a][1,4]diazacyclopentadecin-6-yl)carbamate]	–	–	< 5.46	< 5.46
C[C@H]1CC/C=C\[C@@H]2C[C@@]2(C(=O)NS(=O)(=O)C2(C)CC2)NC(=O)[C@@H]2C[C@@H](Oc3nccc4c5c(ccc34)OCCO5)CN2C(=O)[C@@H](NC(=O)OC(C)(C)C)[C@H](C)C1 [Compound 5244, tert-butyl ((2R,6S,7R,9S,13aS,14aR,16aS,Z)-2-((2,3-dihydro-[1,4]dioxino[2,3-f]isoquinolin-7-yl)oxy)-7,9-dimethyl-14a-(((1-methylcyclopropyl)sulfonyl)carbamoyl)-5,16-dioxo-1,2,3,5,6,7,8,9,10,11,13a,14,14a,15,16,16a-hexadecahydrocyclopropa[e]pyrrolo[1,2-a][1,4]diazacyclopentadecin-6-yl)carbamate]	4.82 to 103	4.82 to 103	–	–
COCCOc1cnc(O[C@@H]2C[C@H]3C(=O)N[C@]4(C(=O)NS(=O)(=O)C5CC5)C[C@H]4/C=C\CC[C@H](C)C[C@@H](C)[C@H](NC(=O)OC(C)(C)C(F)(F)F)C(=O)N3C2)c2ccc(OC)cc12 [Compound 1146, 1,1,1-trifluoro-2-methylpropan-2-yl((2R,6S,7R,9S,13aS,14aR,16aS,Z)-14a-((cyclopropylsulfonyl)carbamoyl)-2-((6-methoxy-4-(2-methoxyethoxyl)isoquinolin-1-yl)oxy)-7,9-dimethyl-5,16-dioxo-1,2,3,5,6,7,8,9,10,11,13a,14,14a,15,16,16a-hexadecahydrocyclopropa[e]pyrrolo[1,2-a][1,4]diazacyclopentadecin-6-yl)carbamate]	–	–	< 5.46	< 5.46
COc1ccc2c(O[C@@H]3C[C@H]4C(=O)N[C@]5(C(=O)NS(=O)(=O)C6CC6)C[C@H]5/C=C\CC[C@H](C)C[C@@H](C)[C@H](NC(=O)OC(C)(C)C)C(=O)N4C3)nc(N(C)C)cc2c1 [Compound 3120, tert-butyl ((2R,6S,7R,9S,13aS,14aR,16aS,Z)-14a-((cyclopropylsulfonyl)carbamoyl)-2-((3-(dimethylamino)-6-methoxyisoquinolin-1-yl)oxy)-7,9-dimethyl-5,16-dioxo-1,2,3,5,6,7,8,9,10,11,13a,14,14a,15,16,16a-hexadecahydrocyclopropa[e]pyrrolo[1,2-a][1,4]diazacyclopentadecin-6-yl)carbamate]	–	–	4.82 to 103	4.82 to 103
COc1cc(F)cc2c(O[C@@H]3C[C@H]4C(=O)N[C@]5(C(=O)NS(=O)(=O)C6CC6)C[C@H]5/C=C\CC[C@@H](C)C[C@@H](C)[C@H](NC(=O)OC(C)(C)C)C(=O)N4C3)nccc12 [Compound 3164, tert-butyl ((2R,6S,7R,9R,13aS,14aR,16aS,Z)-14a-((cyclopropylsulfonyl)carbamoyl)-2-((7-fluoro-5-methoxyisoquinolin-1-yl)oxy)-7,9-dimethyl-5,16-dioxo-1,2,3,5,6,7,8,9,10,11,13a,14,14a,15,16,16a-hexadecahydrocyclopropa[e]pyrrolo[1,2-a][1,4]diazacyclopentadecin-6-yl)carbamate]	–	–	< 5.46	< 5.46
COc1ccc2c(O[C@@H]3C[C@H]4C(=O)N[C@]5(C(=O)NS(=O)(=O)C6(CF)CC6)C[C@H]5/C=C\CC[C@@H](C)C[C@@H](C)[C@H](NC(=O)OC(C)(C)C(F)(F)F)C(=O)N4C3)nc(N3CCCC3)nc2c1 [Compound 3019, 1,1,1-trifluoro-2-methylpropan-2-yl((2R,6S,7R,9R,13aS,14aR,16aS,Z)-14a-(((1-(fluoromethyl)cyclopropyl)sulfonyl)carbamoyl)-2-((7-methoxy-2-(pyrrolidin-1-yl)quinazolin-4-yl)oxy)-7,9-dimethyl-5,16-dioxo-1,2,3,5,6,7,8,9,10,11,13a,14,14a,15,16,16a-hexadecahydrocyclopropa[e]pyrrolo[1,2-a][1,4]diazacyclopentadecin-6-yl)carbamate]	–	–	4.82 to 103	< 5.46
C[C@@H]1CC/C=C\[C@@H]2C[C@@]2(C(=O)NS(=O)(=O)C2CC2)NC(=O)[C@@H]2C[C@@H](Oc3nc4ccccc4c4ccccc34)CN2C(=O)[C@@H](NC(=O)OC(C)(C)C)[C@H](C)C1 [Compound 5183, tert-butyl ((2R,6S,7R,9R,13aS,14aR,16aS,Z)-14a-((cyclopropylsulfonyl)carbamoyl)-7,9-dimethyl-5,16-dioxo-2-(phenanthridin-6-yloxy)-1,2,3,5,6,7,8,9,10,11,13a,14,14a,15,16,16a-hexadecahydrocyclopropa[e]pyrrolo[1,2-a][1,4]diazacyclopentadecin-6-yl)carbamate]	< 5.46	< 5.46	–	–
CCC(C)(CC)OC(=O)N[C@@H]1C(=O)N2C[C@H](Oc3nccc4c5c(ccc34)OCCO5)C[C@H]2C(=O)N[C@]2(C(=O)NS(=O)(=O)C3CC3)C[C@H]2/C=C\CC[C@@H](C)C[C@H]1C [Compound 5266, 3-methylpentan-3-yl((2R,6S,7R,9R,13aS,14aR,16aS,Z)-14a-((cyclopropylsulfonyl)carbamoyl)-2-((2,3-dihydro-[1,4]dioxino[2,3-f]isoquinolin-7-yl)oxy)-7,9-dimethyl-5,16-dioxo-1,2,3,5,6,7,8,9,10,11,13a,14,14a,15,16,16a-hexadecahydrocyclopropa[e]pyrrolo[1,2-a][1,4]diazacyclopentadecin-6-yl)carbamate]	< 5.46	< 5.46	–	–
COc1cc(F)cc2c(O[C@@H]3C[C@H]4C(=O)N[C@]5(C(=O)NS(=O)(=O)C6CC6)C[C@H]5/C=C\CC[C@@H](C)C[C@@H](C)[C@H](NC(=O)O[C@H](C)C(F)(F)F)C(=O)N4C3)nccc12 [Compound 3170, (R)-1,1,1-trifluoropropan-2-yl ((2R,6S,7R,9R,13aS,14aR,16aS,Z)-14a-((cyclopropylsulfonyl)carbamoyl)-2-((7-fluoro-5-methoxyisoquinolin-1-yl)oxy)-7,9-dimethyl-5,16-dioxo-1,2,3,5,6,7,8,9,10,11,13a,14,14a,15,16,16a-hexadecahydrocyclopropa[e]pyrrolo[1,2-a][1,4]diazacyclopentadecin-6-yl)carbamate]	–	–	< 5.46	< 5.46
CCn1nc(O[C@@H]2C[C@H]3C(=O)N[C@]4(C(=O)NS(=O)(=O)C5(C)CC5)C[C@H]4/C=C\CC[C@H](C)C[C@@H](C)[C@H](NC(=O)NC(C)(C)C)C(=O)N3C2)c2ccccc2c1=O [Compound 5058, (2R,6S,7R,9S,13aS,14aR,16aS,Z)-6-(3-(tert-butyl)ureido)-2-((3-ethyl-4-oxo-3,4-dihydrophthalazin-1-yl)oxy)-7,9-dimethyl-N-((1-methylcyclopropyl)sulfonyl)-5,16-dioxo-1,2,3,5,6,7,8,9,10,11,13a,14,14a,15,16,16a-hexadecahydrocyclopropa[e]pyrrolo[1,2-a][1,4]diazacyclopentadecine-14a-carboxamide]	> 87.4	> 87.4	–	–

Reference: patent US9499550B2 (BRISTOL-MYERS SQUIBB COMPANY, priority 2012, dated 2016)
